Test results published in patent USRE42748E1, “Oral DTPA for radionuclide chelation” (priority 2006, dated 2011).
Where “and” joins values, the source holds several entries; their conditions need not be identical. Identical values can stand only once.

Experiments:
[1] = Bioavailability study after liquid dose of radiolabeled DTPA (14C) in male Sprague-Dawley rats (SRI Study B230-06); format: in vivo
Procedure: The objective of this study was to determine the oral bioavailability of Ca-DTPA using radioactive ^14C-DTPA tracer for detection in male Sprague Dawley rats after oral administration in several different formulations. After oral gavage of Ca-DTPA or DTPA (free acid) in sterile water, the oral bioavailability of DTPA is estimated to be about 7% in these two treatment groups. […] In Group 7, which also was administered DTPA in 20% Labrasol (+Quinidine pretreatment), the mean bioavailability was 10%, but this group had greater interindividual variability than seen in the other treatment groups.

[2] = test system: iron-loaded dogs; assay: Excretion of iron after repeat dose administration of DTPA in iron-loaded dogs; format: in vivo, beagle dogs; set-up: Excretion of Fe in urine / Excretion of Fe in urine, Total: unit not given here; details: for Excretion of Fe in urine, Total: sum 4 hr to 120 hr; for excretion of Fe after oral DTPA as % of the amount excreted by intravenously treated animals: oral vs IV
Procedure: The objective of this study was to evaluate the efficacy of an oral formulation of DTPA to enhance the excretion of iron in urine from iron-loaded dogs. Iron-loaded dogs were used in the study as a surrogate model for contamination by transuranic elements.
Two treatment groups, consisting of one male and one female dog, were compared. Ca-DTPA in sterile saline was administered by the intravenous route, 10 mg/kg, on Day 1, followed by 4 days of treatment with Zn-DTPA (10 mg/kg daily). The oral treatment group was also administered 10 mg/kg in 20% Labrasol® in capsules, with Ca-DTPA on Day 1 and Zn-DTPA on Days 2-5. Blood was collected from each dog at the following time points: predose and 1, 4, 8, and 24 hr after dose administration on Day 1, and at 24 hr postdose on Days 2-5. Dogs were maintained in metabolism cages for the study, and urine was collected at 4, 8, and 24 hr after the Day 1 dose, and every 24 hr after the Day 2-5 doses. Collected samples were analyzed for iron, calcium, and zinc by Perkin-Elmer ICP (Inductively Coupled Plasma) unit.

[3] = Oral bioavailability of two additional Ca-DTPA formulations in beagle dogs (SRI Study B221B-06)
Procedure: Oral bioavailability is assessed using the Beagle dog, or equivalent model, wherein levels of plasma Ca/Zn-DTPA from an orally administered composition are compared to levels obtained after i.v. administration using the calculation: BA=AUCPO×Doseiv/AUCiv×DosePO; where BA=bioavailability and AUC=area under the plasma concentration-time curve.
Two additional oral formulations of Ca-DTPA were studied in male and female beagle dogs to determine the effect of modifications in the formulation on oral bioavailability (SRI Study B221B-06). The dose administered was 10 mg/kg plus ˜100 μCi/kg. One male and one female dog received the drug in a bead formulation that consisted of 42.22% DTPA, 25.33% Labrasol®, 8.44% CAB-O-SIL EH5, 24.0% HPMC K110M, and 17.17% water; the other male and female dog were administered DTPA in a liquid formulation that consisted of 20% Labrasol®. In both dose groups, the formulated drug was added to size “0” capsules, then sealed and stored until administration.

[4] = test system: harvested rat small intestinal segments: Duodenum; assay: Ussing chamber mucosal to serosal transport across rat duodenum; format: in vitro ADME; details: 5 mg/ml of DTPA in HEPES Buffer
Procedure: (§1) The primary objective of these in vitro studies was to determine a formulation containing permeation enhancers/other additives that achieved maximum transport of DTPA from mucosal to serosal side of the intestine. The mucosal to serosal absorption of DTPA (Zinc/Calcium) was measured in vitro across harvested rat intestinal segments and colon, in an EasyMount Ussing System (Physiological Instruments Inc., CA, Item #EM-CSYS-8). The Ussing chamber consists of two diffusion chambers, a heating block for temperature control, needle valves for gas flow adjustment and gas lift stirring, and Ag/AgCl voltage and current electrodes for measuring transepithelial voltage and for passing current. Representative sections of the harvested rat small intestinal segments (jejunum, duodenum, and ileum) and the rat colon were mounted on sliders placed between the chambers, and DTPA (Zinc/Calcium) transport across the sections was monitored. Aliquots of sample solution were removed from the ‘serosal’ side at 30 min intervals and analyzed by high performance liquid chromatography (HPLC). The change in mucosal to serosal transport of DTPA (Zinc/Calcium) in the presence of different permeation enhancers was determined.
(§2) Zn-DTPA and Ca-DTPA was dissolved in HEPES buffer (VWR, Brisbane, Calif.), with or without additives, at the predetermined drug concentrations. […]

[5] = test system: harvested rat small intestinal segments: Jejunum; assay: Ussing chamber mucosal to serosal transport across rat jejunum; format: in vitro ADME
Procedure: as §1
Zn-DTPA and Ca-DTPA was dissolved in HEPES buffer (VWR, Brisbane, Calif.), with or without additives, at the predetermined drug concentrations. HEPES buffer was used as the base mucosal and serosal fluid. Before initiating the experiment, 5 ml of HEPES buffer was added to each of the two chambers (mucosal and serosal) and was allowed to equilibrate for 20 min. Next, the mucosal buffer was replaced by the appropriate formulation to be tested and the experiment was initiated. Aliquots (0.5 ml) were collected from the serosal side and were replaced with an equivalent amount of fresh HEPES buffer (maintained at physiological temperature). The aliquotted samples from the serosal side were analyzed by HPLC.
Owing to the expected variation in the in vitro conditions and harvested rat intestinal segments, five replicates were used per experimental condition. In order to compare data obtained from the different experiments, the apparent permeability coefficients (Papp) were calculated according to:
[formula] Where, dQ/dt is the linear appearance rate of mass in receiver compartment, C0 is the initial solute concentration in donor compartment, and A is the surface area. The higher the Papp value, the better the permeation property. The similarity of the Papp values indicates similar behavior for the two DTPA compounds.
We then evaluated transport of Zn-DTPA and Ca-DTPA through jejunum segments with and without Labrasol.
We then tested the transport of 100 mg/ml DTPA in HEPES buffer with and without added enhancers across jejunum segments; results are in Table 3.

[6] = test system: harvested rat small intestinal segments: Ileum; assay: Ussing chamber mucosal to serosal transport across rat ileum; format: in vitro ADME; details: 5 mg/ml of DTPA in HEPES Buffer
Procedure: as §1, §2

[7] = test system: rat colon; assay: Ussing chamber mucosal to serosal transport across rat colon; format: in vitro ADME; details: 5 mg/ml of DTPA in HEPES Buffer
Procedure: as §1, §2

O=C(O)CN(CCN(CC(=O)O)CC(=O)O)CCN(CC(=O)O)CC(=O)O [DTPA]
% Bioavailability Mean ± SD ([1]; Group 4 Oral, 20% Labrasol): ~12%
% Bioavailability Mean ± SD ([1]; Group 7 Oral, 0.15 mM Quinidine pretreatment then 20% Labrasol): 10%
% Bioavailability ([1]; Group 7 Oral, 0.15 mM Quinidine pretreatment then 20% Labrasol, individual rats): 19%
Excretion of Fe in urine ([2]; Dog 1M, IV 10 mg/kg daily, Time 48 hr): 0.6044
Excretion of Fe in urine ([2]; Dog 1M, IV 10 mg/kg daily, Time 72 hr): 0.1732
Excretion of Fe in urine ([2]; Dog 1M, IV 10 mg/kg daily, Time 96 hr): 0.1762
Excretion of Fe in urine ([2]; Dog 1M, IV 10 mg/kg daily, Time 120 hr): 0.2324
Excretion of Fe in urine, Total ([2]; Dog 1M, IV 10 mg/kg daily): 1.444
Excretion of Fe in urine ([2]; Dog 1M, IV 10 mg/kg, Time 4 hr): 0.0970
Excretion of Fe in urine ([2]; Dog 1M, IV 10 mg/kg, Time 8 hr): 0.0471
Excretion of Fe in urine ([2]; Dog 1M, IV 10 mg/kg, Time 24 hr): 0.1136
Excretion of Fe in urine ([2]; Dog 1M, IV in saline 10 mg/kg (Ca-DTPA Day 1, Zn-DTPA Days 2-5), Time 0 hr (predose)): 0.1297
Excretion of Fe in urine ([2]; Dog 2F, IV 10 mg/kg daily, Time 48 hr): 0.2686
Excretion of Fe in urine ([2]; Dog 2F, IV 10 mg/kg daily, Time 72 hr): 0.1623
Excretion of Fe in urine ([2]; Dog 2F, IV 10 mg/kg daily, Time 96 hr): 0.2884
Excretion of Fe in urine ([2]; Dog 2F, IV 10 mg/kg daily, Time 120 hr): 0.0166
Excretion of Fe in urine, Total ([2]; Dog 2F, IV 10 mg/kg daily): 0.925
Excretion of Fe in urine ([2]; Dog 2F, IV 10 mg/kg, Time 4 hr): 0.0975
Excretion of Fe in urine ([2]; Dog 2F, IV 10 mg/kg, Time 8 hr): 0.0124
Excretion of Fe in urine ([2]; Dog 2F, IV 10 mg/kg, Time 24 hr): 0.0792
Excretion of Fe in urine ([2]; Dog 2F, IV in saline 10 mg/kg (Ca-DTPA Day 1, Zn-DTPA Days 2-5), Time 0 hr (predose)): 0.1158
Excretion of Fe in urine ([2]; Dog 3M, Oral 10 mg/kg in 20% Labrasol capsules (Ca-DTPA Day 1, Zn-DTPA Days 2-5), Time 0 hr (predose)): 0.0947
Excretion of Fe in urine ([2]; Dog 3M, Oral 10 mg/kg in 20% Labrasol capsules, Time 4 hr): 0.0654
Excretion of Fe in urine ([2]; Dog 3M, Oral 10 mg/kg in 20% Labrasol capsules, Time 8 hr): 0.0153
Excretion of Fe in urine ([2]; Dog 3M, Oral 10 mg/kg in 20% Labrasol capsules, Time 24 hr): 0.1000
Excretion of Fe in urine ([2]; Dog 3M, Oral 10 mg/kg in 20% Labrasol capsules, Time 48 hr): 0.1232
Excretion of Fe in urine ([2]; Dog 3M, Oral 10 mg/kg in 20% Labrasol capsules, Time 72 hr): 0.0506
Excretion of Fe in urine ([2]; Dog 3M, Oral 10 mg/kg in 20% Labrasol capsules, Time 96 hr): 0.1869
Excretion of Fe in urine ([2]; Dog 3M, Oral 10 mg/kg in 20% Labrasol capsules, Time 120 hr): 0.0506
Excretion of Fe in urine, Total ([2]; Dog 3M, Oral 10 mg/kg in 20% Labrasol capsules): 0.591
Excretion of Fe in urine ([2]; Dog 4F, Oral 10 mg/kg in 20% Labrasol capsules (Ca-DTPA Day 1, Zn-DTPA Days 2-5), Time 24 hr): 0.0314
Excretion of Fe in urine ([2]; Dog 4F, Oral 10 mg/kg in 20% Labrasol capsules, Time 48 hr): 0.1162
Excretion of Fe in urine ([2]; Dog 4F, Oral 10 mg/kg in 20% Labrasol capsules, Time 72 hr): 0.0210
Excretion of Fe in urine ([2]; Dog 4F, Oral 10 mg/kg in 20% Labrasol capsules, Time 96 hr): 0.0406
Excretion of Fe in urine ([2]; Dog 4F, Oral 10 mg/kg in 20% Labrasol capsules, Time 120 hr): 0.1089
Excretion of Fe in urine, Total ([2]; Dog 4F, Oral 10 mg/kg in 20% Labrasol capsules): 0.318
time of highest excretion of Fe in the urine ([2]; female Dog 4 (oral group)): 48 h
excretion of Fe after oral DTPA as % of the amount excreted by intravenously treated animals ([2]; female dogs): 34%
time of highest excretion of Fe in the urine ([2]; male Dog 1 (intravenous group)): 48 h
excretion of Fe after oral DTPA as % of the amount excreted by intravenously treated animals ([2]; male dogs): 40%
time of highest excretion of Fe in the urine ([2]; the other two dogs (Dog 2 IV, Dog 3 oral)): 96 h
dose excreted in the feces ([3]; by 24 hr, both treatment groups (bead and liquid capsule)): 73-74%
dose recovered in the excreta ([3]; by 264 hr after dose administration, oral Labrasol formulations): 95-96%

O=C([O-])CN(CCN(CC(=O)[O-])CC(=O)[O-])CCN(CC(=O)[O-])CC(=O)[O-].[Na+].[Na+].[Na+].[Zn+2] [Zn-DTPA, zinc diethylenetriaminepentaacetate]
Papp [4]: 1.65 ×10⁻⁶ cm/s
Papp ([5]; Jejunum, 5 mg/ml of drug in HEPES Buffer): 4.54 ×10⁻⁶ cm/s and 4.28 ×10⁻⁶ cm/s
Papp ([5]; jejunum, 5 mg/ml of drug in HEPES Buffer containing 40% Labrasol): 19.08 ×10⁻⁶ cm/s
Papp ([5]; jejunum, 100 mg/ml DTPA in HEPES buffer, 5% TPGS + 5% Labrasol): 6.34 ×10⁻⁶ cm/s
Papp ([5]; jejunum, 100 mg/ml DTPA in HEPES buffer, 5% Tween 80 + 5% Labrasol): 13.27 ×10⁻⁶ cm/s
Papp ([5]; jejunum, 100 mg/ml DTPA in HEPES buffer, 20% Bile Salt): 19.65 ×10⁻⁶ cm/s
Papp ([5]; jejunum, 100 mg/ml of drug in HEPES Buffer containing 10% Labrasol): 4.21 ×10⁻⁶ cm/s
Papp ([5]; jejunum, 100 mg/ml of drug in HEPES Buffer containing 20% Labrasol): 3.53 ×10⁻⁶ cm/s
Papp ([5]; jejunum, 100 mg/ml of drug in HEPES Buffer containing 40% Labrasol): 6.81 ×10⁻⁶ cm/s
Papp ([5]; jejunum, 100 mg/ml of drug in HEPES Buffer only): 5.86 ×10⁻⁶ cm/s
Papp [6]: 2.07 ×10⁻⁶ cm/s
Papp [7]: 2.39 ×10⁻⁶ cm/s

O=C(O)CN(CCN(CC(=O)O)CC(=O)O)CCN(CC(=O)O)CC(=O)O [free acid DTPA]
% Bioavailability Mean ± SD ([1]; Group 3 Oral, water): 6.80 ± 1.66%
AUC0→last Mean ± SD ([1]; Group 3 Oral, water, 16.38 mg-equiv DTPA/Kg, 6 hr): 1.21 ± 0.29 Hr * ( ng/ml)
AUC0→last ([1]; Group 3 Oral, water, 16.38 mg-equiv DTPA/Kg, last time point 6 hr, individual rats): 1.4708 Hr * ( ng/ml) and 0.8897 Hr * ( ng/ml) and 1.2594 Hr * ( ng/ml)
% Bioavailability ([1]; Group 3 Oral, water, individual rats): 8.29% and 5.02% and 7.10%
% Bioavailability Mean ± SD ([1]; Group 3 Oral, water, listed as DTPA (free acid)): about 7%

C=C[C@H]1C[N@@]2CC[C@H]1C[C@@H]2[C@@H](O)c1ccnc2ccc(OC)cc12 [quinidine]
inhibition of efflux transport of DTPA ([1]; 0.15 mM quinidine 20 min before DTPA in 20% Labrasol, inferred from rat #19): active in inhibiting efflux transport of DTPA
